Test results as given in publication PMC7358528, “Tuning Scorpion Toxin Selectivity: Switching From KV1.1 to KV1.3” (Frontiers in Pharmacology, 2020).
Like-named read-outs stand apart in the source and are kept apart here. Where a SMILES comes first, the peptide text is derived from it. Bridges are numbered along the chain shown (N, C = ends).

Experiments:
[1] = biological target: rat KV1.2 (rat) (UniProt P63142)
[2] = biological target: rat KV1.1 (rat) (UniProt P10499)
[3] = biological target: rat KV1.6 (rat) (UniProt P17659)
Sequence of rat KV1.6 (rat) (P17659 whole entry): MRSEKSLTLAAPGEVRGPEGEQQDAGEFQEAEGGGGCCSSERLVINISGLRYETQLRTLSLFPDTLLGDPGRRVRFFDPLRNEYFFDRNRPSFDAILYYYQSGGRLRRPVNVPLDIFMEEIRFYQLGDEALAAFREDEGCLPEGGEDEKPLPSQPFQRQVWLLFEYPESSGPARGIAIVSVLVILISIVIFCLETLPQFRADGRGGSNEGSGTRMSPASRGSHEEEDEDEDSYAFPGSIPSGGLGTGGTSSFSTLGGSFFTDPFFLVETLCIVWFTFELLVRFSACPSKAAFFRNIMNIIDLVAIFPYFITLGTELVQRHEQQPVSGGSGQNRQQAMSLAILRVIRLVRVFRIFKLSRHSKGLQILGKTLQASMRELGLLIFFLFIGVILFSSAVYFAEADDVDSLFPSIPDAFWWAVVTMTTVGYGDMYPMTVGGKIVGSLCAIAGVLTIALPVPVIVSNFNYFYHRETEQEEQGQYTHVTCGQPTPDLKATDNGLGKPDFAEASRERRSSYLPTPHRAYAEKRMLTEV

[4] = biological target: T1, KV1.3 (Homo sapiens, UniProt P22001)
T1 sequence (P22001 whole entry): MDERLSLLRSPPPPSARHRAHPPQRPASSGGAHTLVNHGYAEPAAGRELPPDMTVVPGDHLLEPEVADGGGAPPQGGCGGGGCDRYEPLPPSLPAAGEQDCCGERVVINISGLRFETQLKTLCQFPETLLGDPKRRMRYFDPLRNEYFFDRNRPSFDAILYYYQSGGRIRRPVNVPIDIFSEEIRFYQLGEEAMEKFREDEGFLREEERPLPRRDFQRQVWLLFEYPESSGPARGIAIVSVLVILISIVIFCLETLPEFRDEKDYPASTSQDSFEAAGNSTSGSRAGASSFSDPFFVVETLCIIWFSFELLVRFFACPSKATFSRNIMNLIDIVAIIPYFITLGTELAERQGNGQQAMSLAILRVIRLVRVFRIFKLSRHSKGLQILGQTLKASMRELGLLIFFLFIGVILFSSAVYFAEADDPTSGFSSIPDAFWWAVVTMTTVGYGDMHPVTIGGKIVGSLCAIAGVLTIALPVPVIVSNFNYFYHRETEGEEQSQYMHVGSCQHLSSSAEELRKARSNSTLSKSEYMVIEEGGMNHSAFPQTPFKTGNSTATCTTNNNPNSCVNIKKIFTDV

[5] = biological target: rat KV1.1 (rat) (UniProt P10499); remark: listed apart in the source
[6] = biological target: T1, KV1.3; assay: Two-electrode voltage clamp on KV1.3 expressed in Xenopus oocytes; assay type: cell-based; set-up: expressed in transfected cells; host or cells: Xenopus laevis oocytes injected with cRNA; settings: for inhibition at 0.01 µM: 10 nM, KV1.3, Xenopus oocytes, read-out: inhibition of potassium current
Experimental: (§1) Ion Channel Expression in Xenopus Oocytes
(§2) The major pipeline of ion channel expression in oocytes was described previously ([Peigneur et al., 2011]). Briefly, for the expression of KV genes (rat (r)KV1.1, rKV1.2, human (h)KV1.3, rKV1.4, rKV1.5, and rKV1.6) in Xenopus laevis oocytes, linearized plasmids containing the respective gene sequences were transcribed using the T7 mMESSAGE-mMACHINE transcription kit (Ambion). 50 nl of cRNA solution (1 ng/nl) were injected into oocytes using a micro-injector (Drummond Scientific). The oocytes were incubated in ND96 solution: 96 mM NaCl, 2 mM KCl, 1.8 mM CaCl2, 2 mM MgCl2 and 5 mM HEPES, pH 7.4, supplemented with 50 mg/l gentamycin sulfate.
(§3) Electrophysiological Recordings
(§4) Two-electrode voltage-clamp recordings were performed at room temperature (18–22°C) using a Geneclamp 500 amplifier (Molecular Devices) controlled by a pClamp data acquisition system (Axon Instruments) as described ([Peigneur et al., 2011]). Bath solution composition was ND96. KV currents were evoked by 250-ms depolarization to 0 mV from a holding potential of −90 mV, followed by 250-ms pulses to −50 mV. For current–voltage relationship studies, currents were evoked by 10-mV depolarization steps. Concentration–response curves were constructed, in which the percentage of current inhibition was plotted as a function of toxin concentration. Data were fitted with the Hill equation: y = 100/[1 + (IC50/[toxin])^h], where y is the amplitude of the toxin-induced effect, [toxin] is toxin concentration, and h is the Hill coefficient. Comparison of two sample means was performed using a paired Student’s t-test (p-value of 0.05 was used as a threshold of significance). All data were obtained in at least three independent experiments (n ≥ 3) and are presented as mean ± standard error of the mean.

[7] = biological target: T2, KV1.1 (Rattus norvegicus, UniProt P10499); assay: Two-electrode voltage clamp on KV1.1 expressed in Xenopus oocytes; assay type: cell-based; settings: for IC50: rKV1.1, Xenopus oocytes, two-electrode voltage clamp, ND96 pH 7.4, 18–22°C, 0 mV from −90 mV
T2 construct: expressed in transfected cells; host or cells: Xenopus laevis oocytes injected with cRNA
T2 sequence (P10499 whole entry): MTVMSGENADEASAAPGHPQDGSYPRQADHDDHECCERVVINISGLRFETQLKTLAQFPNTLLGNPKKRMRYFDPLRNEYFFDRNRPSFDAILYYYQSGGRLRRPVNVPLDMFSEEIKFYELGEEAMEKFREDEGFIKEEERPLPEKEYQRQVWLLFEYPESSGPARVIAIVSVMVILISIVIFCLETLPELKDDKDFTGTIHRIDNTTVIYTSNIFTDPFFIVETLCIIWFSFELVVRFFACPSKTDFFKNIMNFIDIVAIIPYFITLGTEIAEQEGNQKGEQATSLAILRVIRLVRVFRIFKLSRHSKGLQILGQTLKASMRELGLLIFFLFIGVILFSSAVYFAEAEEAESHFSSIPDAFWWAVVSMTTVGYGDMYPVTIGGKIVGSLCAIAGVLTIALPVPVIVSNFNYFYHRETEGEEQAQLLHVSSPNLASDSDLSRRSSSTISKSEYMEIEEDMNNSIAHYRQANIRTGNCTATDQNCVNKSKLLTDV
Experimental: as §1, §2, §3, §4

[8] = biological target: rat KV1.1 (rat) (UniProt P10499); remark: listed apart in the source
[9] = biological target: rat KV1.2 (rat) (UniProt P63142); remark: listed apart in the source
[10] = biological target: rat KV1.6 (rat) (UniProt P17659); remark: listed apart in the source
[11] = biological target: T1, KV1.3; remark: listed apart in the source
[12] = biological target: T3, KV1.2 (Rattus norvegicus, UniProt P63142); assay: Two-electrode voltage clamp on KV1.2 expressed in Xenopus oocytes; assay type: cell-based
T3 construct: expressed in transfected cells; host or cells: Xenopus laevis oocytes injected with cRNA
T3 sequence (P63142 whole entry): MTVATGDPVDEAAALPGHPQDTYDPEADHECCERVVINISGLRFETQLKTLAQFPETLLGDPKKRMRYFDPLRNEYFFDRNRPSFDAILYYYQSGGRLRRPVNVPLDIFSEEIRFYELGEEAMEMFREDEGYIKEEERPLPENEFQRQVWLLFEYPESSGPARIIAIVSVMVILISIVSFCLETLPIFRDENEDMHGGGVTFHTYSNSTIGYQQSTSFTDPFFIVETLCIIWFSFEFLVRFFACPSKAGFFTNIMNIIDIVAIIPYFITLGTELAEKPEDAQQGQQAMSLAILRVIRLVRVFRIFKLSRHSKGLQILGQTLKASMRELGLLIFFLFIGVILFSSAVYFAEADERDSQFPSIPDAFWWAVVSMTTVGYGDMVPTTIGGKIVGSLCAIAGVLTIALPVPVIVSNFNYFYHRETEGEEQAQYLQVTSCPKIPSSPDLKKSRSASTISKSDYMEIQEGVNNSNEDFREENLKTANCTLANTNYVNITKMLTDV
Experimental: as §1, §2, §3, §4

[13] = biological target: T4, KV1.6 (Rattus norvegicus, UniProt P17659); assay: Two-electrode voltage clamp on KV1.6 expressed in Xenopus oocytes; assay type: cell-based; settings: mean ± SEM, n ≥ 3
T4 construct: expressed in transfected cells; host or cells: Xenopus laevis oocytes injected with cRNA
T4 sequence (P17659 whole entry): as the sequence (P17659 whole entry) above
Experimental: as §1, §2, §3
(§5) Two-electrode voltage-clamp recordings were performed at room temperature (18–22°C) using a Geneclamp 500 amplifier (Molecular Devices) controlled by a pClamp data acquisition system (Axon Instruments) as described ([Peigneur et al., 2011]). Bath solution composition was ND96. KV currents were evoked by 250-ms depolarization to 0 mV from a holding potential of −90 mV, followed by 250-ms pulses to −50 mV. For current–voltage relationship studies, currents were evoked by 10-mV depolarization steps. Concentration–response curves were constructed, in which the percentage of current inhibition was plotted as a function of toxin concentration. […]

[14] = biological target: T5, KV1.4 (Rattus norvegicus, UniProt P15385); assay: Two-electrode voltage clamp on KV1.4 expressed in Xenopus oocytes; assay type: cell-based; settings: rKV1.4, Xenopus oocytes, up to 1 µM
T5 construct: expressed in transfected cells; host or cells: Xenopus laevis oocytes injected with cRNA
T5 sequence (P15385 whole entry): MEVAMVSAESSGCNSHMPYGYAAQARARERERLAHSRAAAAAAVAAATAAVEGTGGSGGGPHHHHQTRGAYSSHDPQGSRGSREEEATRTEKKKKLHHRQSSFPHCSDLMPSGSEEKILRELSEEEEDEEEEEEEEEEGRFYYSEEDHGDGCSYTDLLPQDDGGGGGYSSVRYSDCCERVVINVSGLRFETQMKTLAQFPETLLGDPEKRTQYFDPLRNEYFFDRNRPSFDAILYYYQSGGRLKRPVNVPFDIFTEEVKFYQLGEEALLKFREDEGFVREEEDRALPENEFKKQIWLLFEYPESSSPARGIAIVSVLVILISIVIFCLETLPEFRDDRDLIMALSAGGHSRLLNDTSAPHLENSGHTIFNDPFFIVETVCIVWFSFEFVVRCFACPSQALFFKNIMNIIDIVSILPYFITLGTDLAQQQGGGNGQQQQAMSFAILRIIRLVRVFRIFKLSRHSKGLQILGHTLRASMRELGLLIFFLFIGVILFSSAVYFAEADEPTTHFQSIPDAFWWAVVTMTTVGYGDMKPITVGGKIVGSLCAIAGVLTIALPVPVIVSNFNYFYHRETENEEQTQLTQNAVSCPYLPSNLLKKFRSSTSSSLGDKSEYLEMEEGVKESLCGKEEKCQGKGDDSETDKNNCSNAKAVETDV
Experimental: as §1, §2, §3, §5

[15] = biological target: T6, KV1.5 (Rattus norvegicus, UniProt P19024); assay: Two-electrode voltage clamp on KV1.5 expressed in Xenopus oocytes; assay type: cell-based; settings: rKV1.5, Xenopus oocytes, up to 1 µM
T6 construct: expressed in transfected cells; host or cells: Xenopus laevis oocytes injected with cRNA
T6 sequence (P19024 whole entry): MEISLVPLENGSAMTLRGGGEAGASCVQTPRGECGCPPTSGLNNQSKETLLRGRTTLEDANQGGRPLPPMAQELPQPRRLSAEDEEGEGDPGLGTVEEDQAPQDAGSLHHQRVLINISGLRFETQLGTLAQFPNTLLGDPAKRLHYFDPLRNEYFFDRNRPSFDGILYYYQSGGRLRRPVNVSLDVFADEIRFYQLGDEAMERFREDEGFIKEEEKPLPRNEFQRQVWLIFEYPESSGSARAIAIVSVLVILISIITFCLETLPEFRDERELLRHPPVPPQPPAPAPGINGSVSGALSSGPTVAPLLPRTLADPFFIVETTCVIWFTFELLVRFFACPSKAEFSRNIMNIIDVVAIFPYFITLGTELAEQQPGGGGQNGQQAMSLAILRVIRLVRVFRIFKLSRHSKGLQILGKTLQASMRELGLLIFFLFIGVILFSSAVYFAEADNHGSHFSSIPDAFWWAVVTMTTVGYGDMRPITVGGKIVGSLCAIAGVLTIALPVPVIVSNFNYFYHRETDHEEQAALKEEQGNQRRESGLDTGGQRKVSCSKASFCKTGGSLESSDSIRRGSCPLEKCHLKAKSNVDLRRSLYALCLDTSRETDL
Experimental: as §1, §2, §3, §5

Sequence of rat KV1.1 (rat) (P10499 whole entry): as the sequence (P10499 whole entry) above
Sequence of rat KV1.2 (rat) (P63142 whole entry): as the sequence (P63142 whole entry) above

Compound “MeKTx13-3, natural toxin from Mesobuthus eupeus venom (peptide)” has an IC50 of inhibition of potassium current, two-electrode voltage clamp, X. laevis oocytes [1] of 106 nM, an IC50 of inhibition of potassium current, two-electrode voltage clamp, X. laevis oocytes [2] of 1.9 nM and an IC50 of inhibition of potassium current, two-electrode voltage clamp, X. laevis oocytes [3] of 63.4 nM. It also gave an IC50 of inhibition of potassium current, two-electrode voltage clamp, X. laevis oocytes [4] of 8.9 nM and a percent of potassium current blocked at 10 nM toxin, two-electrode voltage clamp, X. laevis oocytes [5] of over 95%.
CC[C@H](C)[C@H](NC(=O)CNC(=O)[C@@H](N)C(C)C)C(=O)N[C@@H](CC(N)=O)C(=O)N[C@H](C(=O)N[C@@H](CCCCN)C(=O)N[C@H]1CSSC[C@@H]2NC(=O)[C@H](CCCCN)NC(=O)CNC(=O)[C@H](Cc3ccccc3)NC(=O)[C@H](CCCNC(=N)N)NC(=O)[C@H](CCSC)NC(=O)CNC(=O)[C@H](C)NC(=O)[C@H](CC(=O)O)NC(=O)[C@H](CCCCN)NC(=O)[C@@H]3CSSC[C@@H](C(=O)N[C@H](C(=O)N4CCC[C@H]4C(=O)N[C@@H](CCCCN)C(=O)O)[C@@H](C)O)NC(=O)[C@H](CC(=O)O)NC(=O)[C@H](CSSC[C@H](NC(=O)[C@H](CCC(N)=O)NC(=O)CNC(=O)[C@H](CO)NC(=O)[C@H](Cc4c[nH]cn4)NC(=O)[C@H](CCCCN)NC1=O)C(=O)N[C@@H](CC(C)C)C(=O)N[C@@H](CCCCN)C(=O)N1CCC[C@H]1C(=O)N3)NC(=O)[C@H](CCCCN)NC(=O)CNC(=O)[C@H](CC(N)=O)NC(=O)[C@H]([C@@H](C)CC)NC2=O)C(C)C [Recombinant MeKTx13-3] (H-VGINVKCKHSGQCLKPCKDAGMRFGKCINGKCDCTPK-OH; disulfide 7-27, 13-32, 17-34) showed an inhibition at 0.01 µM [6] of about 50% and an IC50 ([7]; mean ± SEM, n ≥ 3) of 6.7 ± 2.7 nM.
For Recombinant MeKTx13-3 (peptide), the IC50 of inhibition of potassium current, two-electrode voltage clamp, X. laevis oocytes [8] was 6.7 nM, the percent of potassium current blocked at 10 nM toxin, two-electrode voltage clamp, X. laevis oocytes [9] was 25% and the percent of potassium current blocked at 10 nM toxin, two-electrode voltage clamp, X. laevis oocytes [5] was over 95%. It also gave a percent of potassium current blocked at 10 nM toxin, two-electrode voltage clamp, X. laevis oocytes [10] of 15% and a percent of potassium current blocked at 10 nM toxin, two-electrode voltage clamp, X. laevis oocytes [11] of 50%.
CC[C@H](C)[C@H](NC(=O)CNC(=O)[C@@H](N)C(C)C)C(=O)N[C@@H](CC(N)=O)C(=O)N[C@H](C(=O)N[C@@H](CCCCN)C(=O)N[C@H]1CSSC[C@@H]2NC(=O)[C@H](CCCCN)NC(=O)CNC(=O)[C@H](Cc3ccccc3)NC(=O)[C@H](CCCNC(=N)N)NC(=O)[C@H](CCSC)NC(=O)CNC(=O)[C@H](C)NC(=O)[C@H](CC(=O)O)NC(=O)[C@H](CCCCN)NC(=O)[C@@H]3CSSC[C@@H](C(=O)N[C@H](C(=O)N4CCC[C@H]4C(=O)N[C@@H](CCCCN)C(N)=O)[C@@H](C)O)NC(=O)[C@H](CC(=O)O)NC(=O)[C@H](CSSC[C@H](NC(=O)[C@H](CCC(N)=O)NC(=O)CNC(=O)[C@H](CO)NC(=O)[C@H](Cc4c[nH]cn4)NC(=O)[C@H](CCCCN)NC1=O)C(=O)N[C@@H](CC(C)C)C(=O)N[C@@H](CCCCN)C(=O)N1CCC[C@H]1C(=O)N3)NC(=O)[C@H](CCCCN)NC(=O)CNC(=O)[C@H](CC(N)=O)NC(=O)[C@H]([C@@H](C)CC)NC2=O)C(C)C [MeKTx13-3] (H-VGINVKCKHSGQCLKPCKDAGMRFGKCINGKCDCTPK-NH2; disulfide 7-27, 13-32, 17-34; N-terminus and C-terminus assumed) was tested, and the Hill coefficient ([12]; KV1.2 concentration–response, mean ± SEM, n ≥ 3) was 1.3 ± 0.3, the inhibition at 0.01 µM [6] was about 50% and the Hill coefficient ([6]; KV1.3 concentration–response, mean ± SEM, n ≥ 3) was 0.8 ± 0.2. For the same compound, the Hill coefficient ([13]; KV1.6 concentration–response) was 1.0 ± 0.1 and the Hill coefficient ([7]; KV1.1 concentration–response, mean ± SEM, n ≥ 3) was 0.9 ± 0.1.
Compound CC[C@H](C)[C@H](NC(=O)CNC(=O)[C@@H](N)C(C)C)C(=O)N[C@@H](CC(N)=O)C(=O)N[C@H](C(=O)N[C@@H](CCCCN)C(=O)N[C@H]1CSSC[C@@H]2NC(=O)[C@H](CCCCN)NC(=O)CNC(=O)[C@H](Cc3ccccc3)NC(=O)[C@H](CCCNC(=N)N)NC(=O)[C@H](CCSC)NC(=O)CNC(=O)[C@H](C)NC(=O)[C@H](CC(=O)O)NC(=O)[C@H](C)NC(=O)[C@@H]3CSSC[C@@H](C(=O)N[C@H](C(=O)N4CCC[C@H]4C(=O)N[C@@H](CCCCN)C(=O)O)[C@@H](C)O)NC(=O)[C@H](CCCNC(=N)N)NC(=O)[C@H](CSSC[C@H](NC(=O)[C@H](C)NC(=O)CNC(=O)[C@H](CO)NC(=O)[C@H](Cc4c[nH]cn4)NC(=O)[C@H](CCCCN)NC1=O)C(=O)N[C@@H](CC(C)C)C(=O)N[C@@H](C)C(=O)N1CCC[C@H]1C(=O)N3)NC(=O)[C@H](CCCCN)NC(=O)CNC(=O)[C@H](CC(N)=O)NC(=O)[C@H]([C@@H](C)CC)NC2=O)C(C)C [MeKTx13-3_AAAR] (H-VGINVKCKHSGACLAPCADAGMRFGKCINGKCRCTPK-OH; disulfide 7-27, 13-32, 17-34) has an inhibition at 0.01 µM ([12]; 10 nM, KV1.2, Xenopus oocytes, read-out: inhibition of potassium current) of about 5%, an IC50 ([12]; rKV1.2, Xenopus oocytes, two-electrode voltage clamp, ND96 pH 7.4, 18–22°C, 0 mV from −90 mV, mean ± SEM, n ≥ 3) of 208 ± 15.2 nM and an inhibition at 0.01 µM [6] of about 50%. For the same compound, the IC50 ([6]; hKV1.3, Xenopus oocytes, two-electrode voltage clamp, ND96 pH 7.4, 18–22°C, 0 mV from −90 mV, mean ± SEM, n ≥ 3) was 9.1 ± 0.4 nM, the KV1.1/KV1.3 selectivity factor ([6]; ratio of IC50 values KV1.1/KV1.3) was 60 and the IC50 ([13]; rKV1.6, Xenopus oocytes, two-electrode voltage clamp, ND96 pH 7.4, 18–22°C, 0 mV from −90 mV) was 1520 ± 183 nM. For the same compound, the inhibition at 0.01 µM ([7]; 10 nM, KV1.1, Xenopus oocytes, read-out: inhibition of potassium current) was about 15%, the IC50 ([7]; mean ± SEM, n ≥ 3) was 541 ± 48.6 nM and the IC50 [14] was over 1000 nM. The IC50 [15] was over 1000 nM.
